Assay results: PubChem BioAssay AID248 (DTP/NCI, 2004)
Toxic doses and inconclusive results are not listed. Rule as the data show it: active = T/C of 150% or more; inactive = T/C below 125%.

System: L1210 leukemia ip in BDF1 mice, survival T/C
Assay: NCI In Vivo Anticancer Drug Screen. Data for tumor model L1210 Leukemia (intraperitoneal) in B6D2F1 (BDF1) mice
Settings: endpoint: mean survival time, higher = longer survival
Outline: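 In this screen, tumor-bearing mice given compound are compared to those given vehicle, and their survival values are reported as a treated-to-control quotient.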

[1] = dose: 50.0 mg/kg/injection, schedule: Q01DX009 (ip), vehicle: saline with Tween-80
[2] = dose: 100.0 mg/kg/injection, schedule: Q01DX009 (ip), vehicle: saline with Tween-80
[3] = dose: 200.0 mg/kg/injection, schedule: Q01DX009 (ip), vehicle: saline with Tween-80
[4] = dose: 100.0 mg/kg/injection, schedule: Q01DX009 (ip), vehicle: Klucel (hydroxypropylcellulose) (HPC)
[5] = dose: 200.0 mg/kg/injection, schedule: Q01DX009 (ip), vehicle: Klucel (hydroxypropylcellulose) (HPC)
[6] = dose: 100.0 mg/kg/injection, schedule: Q01DX001 (ip), vehicle: saline
[7] = dose: 200.0 mg/kg/injection, schedule: Q01DX001 (ip), vehicle: saline
[8] = dose: 400.0 mg/kg/injection, schedule: Q01DX001 (ip), vehicle: saline
[9] = dose: 100.0 mg/kg/injection, schedule: Q01DX001 (ip), vehicle: Klucel (hydroxypropylcellulose) (HPC)
[10] = dose: 200.0 mg/kg/injection, schedule: Q01DX001 (ip), vehicle: Klucel (hydroxypropylcellulose) (HPC)
[11] = dose: 400.0 mg/kg/injection, schedule: Q01DX001 (ip), vehicle: Klucel (hydroxypropylcellulose) (HPC)
[12] = dose: 50.0 mg/kg/injection, schedule: Q01DX009 (ip), vehicle: saline
[13] = dose: 100.0 mg/kg/injection, schedule: Q01DX009 (ip), vehicle: saline
[14] = dose: 100.0 mg/kg/injection, schedule: Q04DX003 (ip), vehicle: Klucel (hydroxypropylcellulose) (HPC)
[15] = dose: 200.0 mg/kg/injection, schedule: Q04DX003 (ip), vehicle: Klucel (hydroxypropylcellulose) (HPC)

Measured: T/C

CC12CCCC(O)C1(O)CC(C(=O)O)CC2 (stereo not given)
inactive: [1] 100 % of control | [2] 96 % of control | [3] 96 % of control

CCOc1cc([N+](=O)[O-])c(OCC)cc1C#N
inactive: dose: 5.0 mg/kg/injection, schedule: Q01DX001 (ip), vehicle: other 106 % of control | dose: 10.0 mg/kg/injection, schedule: Q01DX001 (ip), vehicle: other 90 % of control | dose: 20.0 mg/kg/injection, schedule: Q01DX001 (ip), vehicle: other 93 % of control

CC1CCC2C(C)C3C(CC4C5CC=C6CC(OC7OC(COC8OC(CO)C(OC9OC(C)C(O)C(O)C9O)C(O)C8O)C(O)C(O)C7O)CCC6(C)C5CCC43C)N2C1 (stereo not given)
inactive: dose: 50.0 mg/kg/injection, schedule: Q04DX002 (ip), vehicle: Klucel (hydroxypropylcellulose) (HPC) 105 % of control | dose: 100.0 mg/kg/injection, schedule: Q04DX002 (ip), vehicle: Klucel (hydroxypropylcellulose) (HPC) 102 % of control

COc1cc(NS(=O)(=O)c2ccc(C(C)=O)cc2)nc(OC)n1
inactive: [4] 94 % of control | [5] 102 % of control | dose: 400.0 mg/kg/injection, schedule: Q01DX009 (ip), vehicle: Klucel (hydroxypropylcellulose) (HPC) 98 % of control

CC(C)C1=CC23CCC4C(C)(C(=O)Cl)CCCC4(C)C2CC1C1(Cl)C(=O)OC(=O)C31Cl (stereo not given)
inactive: dose: 75.0 mg/kg/injection, schedule: Q01DX001 (ip), vehicle: other 94 % of control | dose: 150.0 mg/kg/injection, schedule: Q01DX001 (ip), vehicle: other 93 % of control | dose: 300.0 mg/kg/injection, schedule: Q01DX001 (ip), vehicle: other 89 % of control

NC(=S)N=Nc1ccc(O)cc1
inactive: dose: 50.0 mg/kg/injection, schedule: Q01DX001 (ip), vehicle: saline 103 % of control | [6] 100 % of control | [7] 100 % of control | [8] 109 % of control

CC(C)C1C(C(C)C)N1C(=O)Nc1ccccc1 (stereo not given)
inactive: [9] 93 % of control | [10] 96 % of control | [11] 93 % of control

CCCCCCCCCCCCCSCCCCCCCCCCCCSCCCCCCCCCCCC
inactive: [9] 89 % of control | [10] 88 % of control | [11] 89 % of control

CC(=O)OCC1CCCN1C(C)=O (stereo not given)
inactive: [12] 101 % of control | [13] 101 % of control | dose: 200.0 mg/kg/injection, schedule: Q01DX009 (ip), vehicle: saline 101 % of control

N#Cc1cc(C#N)c(Cl)nc1N
inactive: [4] 94 % of control | [14] 97 % of control | [5] 95 % of control | [15] 95 % of control | dose: 400.0 mg/kg/injection, schedule: Q04DX003 (ip), vehicle: Klucel (hydroxypropylcellulose) (HPC) 106 % of control

Cc1cc2c(cc1C)C1(c3ccccc3)OC2(c2ccccc2)C(C(=O)c2ccccc2)C1C(=O)c1ccccc1 (stereo not given)
inactive: [1] 91 % of control | [2] 91 % of control | [3] 91 % of control

S=C(Nc1ccccc1)N1CC1
inactive: [9] 96 % of control | dose: 100.0 mg/kg/injection, schedule: Q04DX003 (ip), vehicle: saline with Tween-80 91 % of control | [10] 98 % of control | dose: 200.0 mg/kg/injection, schedule: Q04DX003 (ip), vehicle: saline with Tween-80 92 % of control | [11] 94 % of control | dose: 400.0 mg/kg/injection, schedule: Q04DX003 (ip), vehicle: saline with Tween-80 90 % of control

CC1CC(=O)C=C(c2ccccc2)O1 (stereo not given)
inactive: dose: 75.0 mg/kg/injection, schedule: Q01DX009 (ip), vehicle: Klucel (hydroxypropylcellulose) (HPC) 101 % of control | dose: 150.0 mg/kg/injection, schedule: Q01DX009 (ip), vehicle: Klucel (hydroxypropylcellulose) (HPC) 101 % of control

Cc1cc(N(CCOS(C)(=O)=O)CCOS(C)(=O)=O)ccc1C=Nc1ccc(-c2csc(-c3ccc(Br)cc3)n2)cc1
active: [14] 150 % of control
inactive: [13] 109 % of control | dose: 150.0 mg/kg/injection, schedule: Q01DX009 (ip), vehicle: saline 101 % of control | [15] 91 % of control

ClCC1CC2CC1C1OC21 (stereo not given)
inactive: [6] 106 % of control

CC1CCCNC1C (stereo not given)
inactive: dose: 25.0 mg/kg/injection, schedule: Q01DX009 (ip), vehicle: saline 95 % of control | [12] 103 % of control | [2] 102 % of control | [13] 100 % of control

Cc1cccc(N2CCN(C(=S)c3ccccc3)CC2)c1
inactive: [6] 93 % of control | [7] 93 % of control | [8] 98 % of control
